Data reported in patent US12280048B2, “Amorphous solid dispersions” (priority 2016, dated 2025).
Values after ≈ are worked out from the molar mass of the structure shown.

How the values were obtained:
[1] = cited from earlier work
[2] = chemical stability of ITI-007 by HPLC over the seven-day study; format: physicochemical; settings: 7 days at 40° C./75% RH, normalized to content before the study
[3] = preliminary screen of dispersions by XRPD and appearance; format: physicochemical; settings: XRPD, as generated by lyophilization; ITI-007 free base/excipient
Method: X-ray powder diffraction (XRPD): The X-ray powder diffraction studies are performed using a PANalytical X'Pert PRO MPD diffractometer using an incident beam of Cu radiation produced using an Optix long, fine-focus source. An elliptically graded multilayer mirror is used to focus Cu Kα X-ray radiation through the specimen and onto the detector. Prior to analysis, a silicon specimen is analyzed to verify the observed position of the Si (111) peak (consistent with the NIST-certified position, NIST SM 640e). A specimen of the sample is sandwiched between 3-micron thick films and analyzed in transmission geometry. A beam-stop, short antiscatter extension, and antiscatter knife edge is used to minimize the background generated by the air. Soller slits for the incident and diffracted beams are used to minimize broadening from axial divergence. Diffraction patterns are collected using a scanning position-sensitive detector (X'Celerator) located 240 mm from the specimen.

[4] = target: T1, 5-HT2C receptors (Homo sapiens, UniProt P28335); settings: cited from earlier work
T1 sequence (P28335 33-458): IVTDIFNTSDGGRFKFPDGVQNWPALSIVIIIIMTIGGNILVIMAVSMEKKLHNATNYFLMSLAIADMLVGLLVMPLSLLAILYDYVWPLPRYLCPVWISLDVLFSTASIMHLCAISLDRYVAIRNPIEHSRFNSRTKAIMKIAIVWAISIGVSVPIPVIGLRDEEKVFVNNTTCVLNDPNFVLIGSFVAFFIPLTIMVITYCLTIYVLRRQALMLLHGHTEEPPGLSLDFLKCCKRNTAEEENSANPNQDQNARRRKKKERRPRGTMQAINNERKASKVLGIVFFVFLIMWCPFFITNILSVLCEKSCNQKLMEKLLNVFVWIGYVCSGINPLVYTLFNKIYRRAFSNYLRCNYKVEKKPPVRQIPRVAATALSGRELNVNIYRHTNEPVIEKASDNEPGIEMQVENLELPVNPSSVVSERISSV

[5] = solubility of ITI-007 free base in solvents; format: physicochemical
[6] = tested on: muscarinic receptors; settings: cited from earlier work
[7] = mDSC glass transition of dispersions; format: physicochemical; settings: single glass transition above 75° C., Yes/No
[8] = target: H1 histaminergic receptors (Homo sapiens, UniProt P35367); settings: cited from earlier work
[9] = salt of U.S. Pat. No. 7,183,282

Chain of H1 histaminergic receptors (P35367 whole entry): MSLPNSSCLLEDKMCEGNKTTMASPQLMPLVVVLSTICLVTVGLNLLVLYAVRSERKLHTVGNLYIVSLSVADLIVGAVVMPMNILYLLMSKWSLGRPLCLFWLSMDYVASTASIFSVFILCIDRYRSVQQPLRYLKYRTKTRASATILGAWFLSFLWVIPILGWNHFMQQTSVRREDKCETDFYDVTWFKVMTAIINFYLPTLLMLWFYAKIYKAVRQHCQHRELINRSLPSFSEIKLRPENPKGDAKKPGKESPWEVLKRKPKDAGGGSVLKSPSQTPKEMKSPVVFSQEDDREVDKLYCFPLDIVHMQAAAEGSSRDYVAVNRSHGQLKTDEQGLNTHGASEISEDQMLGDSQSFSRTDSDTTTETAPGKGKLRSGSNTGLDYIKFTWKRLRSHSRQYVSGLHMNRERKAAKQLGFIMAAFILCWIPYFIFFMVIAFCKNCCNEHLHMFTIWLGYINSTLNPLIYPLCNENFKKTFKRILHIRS

Row | Structure (SMILES) | solubility in water ([1]; free base form) | % ITI-007 change by HPLC [2] | X-ray Amorphous Solids? [3] | binding [4] | solubility ([5]; 2,2,2-trifluoroethanol (TFE), organic solvent or mixture) | solubility ([5]; acetone, organic solvent or mixture) | solubility ([5]; dioxane, organic solvent or mixture) | solubility ([5]; ethanol, organic solvent or mixture) | solubility ([5]; methanol, organic solvent or mixture) | stability in solution ([5]; solutions in TFE) | solubility ([5]; tert-butanol/water mixtures, aqueous with cosolvent or surfactant or cyclodextrin) | binding [6] | Tg > 75° C. [7] | binding [8] | hygroscopicity [1, 9] | stability [1, 9]
1 | CN1CCN2c3c(cccc31)[C@@H]1CN(CCCC(=O)c3ccc(F)cc3)CC[C@@H]12 [ITI-007, 1-(4-fluoro-phenyl)-4-((6bR,10aS)-3-methyl-2,3,6b,9,10,10a-hexahydro-1H,7H-pyrido[3′,4′:4,5]pyrrolo[1,2,3-de]quinoxalin-8-yl)-butan-1-one] | poor solubility in water | −5.97% | No | negligible binding | > 50 mg/mL | > 50 mg/mL | > 50 mg/mL | > 50 mg/mL | > 50 mg/mL | rapidly discolor due to decomposition of the active | 5 to 50 mg/mL (≈ 12.7 to 127 mM) | negligible binding | No | negligible binding |  | 
2 | CN1CCN2c3c(cccc31)C1CN(CCCC(=O)c3ccc(F)cc3)CCC12.Cl (stereo not shown) [hydrochloride salt form of ITI-007] |  |  |  |  |  |  |  |  |  |  |  |  |  |  | hygroscopic | poor stability
